Source: patent US7329726B2, “Physiologically active peptides” (Seiren Kabushiki Kaisha, priority 2004, dated 2008)
Where two headings read alike, the source gives them in different places. Peptide text beside a SMILES is read from it.

B1: Peptide B: peptide having the amino acid sequence of SEQ ID NO: 3, 2 repeats of the 38 amino acid sequence contained in natural sericin (WO 02/086133) (protein)
chain: SSTGSSSNTDSNSNSAGSSTSGGSSTYGYSSNSRDGSVSSTGSSSNTDSNSNSAGSSTSGGSSTYGYSSNSRDGSV
modifications: Peptide derived from sericin

Legend:
insect cell Sf9 [1] = type: cell-based; details: Sf9 cells; for Survival rate (%) Average ± Standard deviation (n = 4): Sf900IISFM medium without FCS, 5 days at 27.5° C.
Procedure: Cell death-preventing activity of the peptide according to the present invention was evaluated using an insect cell Sf9 (Invitrogen).
The Sf9 cell is usually subcultured using an Sf900IISFM medium (Invistrogen) containing 10% FCS (fetal calf serum) (Sigma) at a temperature of 27.5° C. It is known that marked cell death occurs when the Sf9 cells thus cultured are abruptly transferred into a medium without FCS and thus exposed to drastic serum-deprived conditions. In this test, cells to be tested were exposed under such drastic serum-deprived conditions and their survival rate was measured to evaluate cell death-preventing effect of the peptide according to the present invention.
First, Sf9 cells subcultured using a medium supplemented with 10% FCS were centrifuged at 1000 rpm at 4° C. for 5 minutes. Next, the supernatant was removed and the precipitated cells were suspended in an Sf900IISFM medium without FCS. The suspension was recentrifuged at 1000 rpm at 4° C. for 5 minutes to wash the cells.
Next, in order to expose the cells under drastic serum-deprived conditions, the washed cells were resuspended in an Sf900IISFM medium without FCS and a cell suspension having a cell density of 5×10^5 cells/ml was prepared.
On the other hand, peptide A (the present invention) was dissolved in an Sf900IISFM medium without FCS and peptide solutions were prepared at peptide concentrations of 0.2 mg/ml, 0.6 mg/ml, and 2.0 mg/ml. The peptide solutions thus prepared were sterilized by filtration.
Next, 50 μl of the abovementioned cell suspension and 50 μl each of the abovementioned peptide solutions were dispensed on a 96-well cell culture plate at a final cell density of 2.5×10^5 cells/ml and final peptide concentrations of 0.1 mg/ml, 0.3 mg/ml, and 1.0 mg/ml, respectively. This culture plate was incubated at 27.5° C. for 5 days.
After 5 days of incubation, cells were stained with Trypan blue and the number of dead cells and the number of viable cells were counted to obtain the survival rate. Here the survival rate means the ratio of the viable cell count to the total cell count upon cell counting.
As a comparative example, an experiment was carried out in the same manner as described above for peptide A, except that peptide B was used in place of peptide A (the present invention), to obtain the survival rate.
As another comparative example, an experiment was carried out in the same manner as described above for peptide A, except that a bovine serum albumin (Sigma) solution was used in place of the abovementioned peptide solutions, to obtain the survival rate.

insect cell Sf9 [2] = assay: Evaluation Test 2: Cell growth-promoting activity (MTT assay under serum-deprived conditions); type: cell-based; details: Sf9 cells; for OD 595 nm Average ± Standard deviation (n = 4): medium without FCS, 9 days at 27.5° C.
Procedure: Cell growth-promoting activity of the peptide according to the present invention was evaluated using an insect cell Sf9 (Invitrogen).
It is known that marked cell death as shown in Evaluation Test 1 and thereafter a decrease in cell growth occur when the Sf9 cells are exposed to drastic serum-deprived conditions. In this test, the cells to be tested were exposed under such drastic serum-deprived conditions and their growth ability was measured to evaluate cell growth-promoting effect of the peptide according to the present invention.
A cell suspension was prepared in the same manner as in Evaluation test 1, and peptide solutions were prepared using peptide A (the present invention) as in Evaluation test 1. Next, 50 μl of this cell suspension and 50 μl each of the peptide solutions were dispensed on a 96-well cell culture plate in the same manner as in Evaluation test 1, and this culture plate was incubated at 27.5° C. for 9 days.
After 9 days of incubation, cell growth-promoting effect was evaluated by the MTT assay.
Specifically, to each well of the 96-well plate incubated for 9 days was added 5 μl of 5 mg/ml 3-(4,5-dimethyl-2-thiazolyl)-2,5-diphenyl tetrazolium bromide (MTT) in phosphate-buffered physiological saline, and the plate was incubated at 27.5° C. for further 5 hours. During this culture process, MTT is transformed into insoluble formazan in viable cells. After 5 hours of incubation, cell culture supernatant was completely removed and then 200 μl each of a 10 mM […] solution with 10% SDS was added to each well to completely dissolve the cells and formazan in the cells. Next, the absorption coefficient at 595 nm was measured for each well using a microplate reader.
As a comparative example, an experiment was carried out in the same manner as the one with the abovementioned peptide A, except that peptide B was used in place of peptide A (the present invention), and then the absorption coefficient at 595 nm was measured for each well.
As another comparative example, an experiment was carried out in the same manner as described above for peptide A, except that a bovine serum albumin (Sigma) solution was used in place of the abovementioned peptide solutions, and then the absorption coefficient at 595 nm was measured for each well.
Here the value of the absorption coefficient in the NTT assay increases with an increase in viable cell density.

[3] = sample concentration 1.0 mg/ml, listed as peptide A

Row | Molecule | Survival rate (%) Average ± Standard deviation (n = 4) (insect cell Sf9 [1]; sample concentration 0.1 mg/ml) | Survival rate (%) Average ± Standard deviation (n = 4) (insect cell Sf9 [1]; sample concentration 0.3 mg/ml) | Survival rate (%) Average ± Standard deviation (n = 4) (insect cell Sf9 [1]; sample concentration 1.0 mg/ml) | Survival rate (%) Average ± Standard deviation (n = 4) (insect cell Sf9 [1]; [3]) | survival rate compared with peptide B (comparative example) (insect cell Sf9 [1]; serum-deprived, 5 days) | OD 595 nm Average ± Standard deviation (n = 4) (insect cell Sf9 [2]; sample concentration 0.1 mg/ml) | OD 595 nm Average ± Standard deviation (n = 4) (insect cell Sf9 [2]; sample concentration 0.3 mg/ml) | OD 595 nm Average ± Standard deviation (n = 4) (insect cell Sf9 [2]; sample concentration 1.0 mg/ml) | OD 595 nm Average ± Standard deviation (n = 4) (insect cell Sf9 [2]; [3]) | cell growth-promoting activity compared with peptide B (comparative example) (insect cell Sf9 [2]; serum-deprived, 9 days)
1 | C[C@@H](O)[C@H](NC(=O)[C@H](CO)NC(=O)[C@H](CO)NC(=O)CNC(=O)CNC(=O)[C@@H](N)CO)C(=O)N[C@@H](Cc1ccc(O)cc1)C(=O)NCC(=O)N[C@@H](Cc1ccc(O)cc1)C(=O)N[C@@H](CO)C(=O)O [Peptide A] (H-SGGSSTYGYS-OH; N-terminus assumed) | 28.5 ± 3.4% | 47.3 ± 2.9% | 58.0 ± 3.2% | about 60% | higher than that with peptide B | 0.48 ± 0.01 | 0.80 ± 0.02 | 0.92 ± 0.02 | about 0.9 | higher than that with peptide B
2 | bovine serum albumin [reference compound] |  | 62.5 ± 3.0% |  |  |  |  | 0.90 ± 0.03 |  |  | 
3 | B1 |  | 46.1 ± 2.2% |  |  |  |  | 0.72 ± 0.03 |  |  | 
